# Laboratory results as given in patent publication US8889682B2, “Inhibitors of bruton'S tyrosine kinase” (Hoffmann-La Roche Inc., priority 2011, dated 2014).
# Test system: B cell receptor-mediated activation of B cells in human blood (CD69 expression)
# Experiment: Inhibition of B cell activation in whole blood measured by CD69 expression
# Format: cell-based
# Conditions: anti-IgM stimulation, 20 hours, CD69-positive cells that are also CD20-positive, read-out: HWB IC50
# Protocol: Inhibition of B Cell Activation in Whole Blood Measured by CD69 Expression
# A procedure to test the ability of Btk inhibitors to suppress B cell receptor-mediated activation of B cells in human blood is as follows:
# Human whole blood (HWB) is obtained from healthy volunteers, with the following restrictions: 24 hr drug-free, non-smokers. Blood is collected by venipuncture into Vacutainer tubes anticoagulated with sodium heparin. Test compounds are diluted to ten times the desired starting drug concentration in PBS […], followed by three-fold serial dilutions in 10% DMSO in PBS to produce a nine point dose-response curve. […] HWB (100 μl) is added to each well, and after mixing the plates are incubated at 37 C, 5% CO2, 100% humidity for 30 minutes.
# Included are induced control, unstained and single stains for compensation adjustments and initial voltage settings. […] Supernatants are removed via suction and the remaining pellets are lysed again with another 1 ml of 1× Pharmingen Lyse Buffer, and plates are spun down as before. Supernatants are aspirated and remaining pellets are washed in FACs buffer (PBS+1% FBS). […] Samples are transferred to a 96 well plate suitable to be run on the HTS 96 well system on the BD LSR II flow cytometer.
# Using appropriate excitation and emission wavelengths for the fluorophores used, data are acquired and percent positive cell values are obtained using Cell Quest Software. Results are initially analyzed by FACS analysis software (Flow Jo).
row,Compound,IC50 [nM]
1,"CN1CCn2nc(Nc3cc(-c4ccnc(-n5ccc6cc(C(C)(C)C)cc(F)c6c5=O)c4CO)nn(C)c3=O)cc2C1 [Compound I-23, 6-tert-Butyl-8-fluoro-2-{3-hydroxymethyl-4-[1-methyl-5-(5-methyl-4,5,6,7-tetrahydro-pyrazolo[1,5-a]pyrazin-2-ylamino)-6-oxo-1,6-dihydro-pyridazin-3-yl]-pyridin-2-yl}-2H-isoquinolin-1-one]",15
2,"Cn1nc(-c2ccnc(-n3ccc4cc(C(C)(C)C)cc(F)c4c3=O)c2CO)cc(Nc2cc3n(n2)CCN(C2COC2)C3)c1=O [Compound I-24, 6-tert-Butyl-8-fluoro-2-{3-hydroxymethyl-4-[1-methyl-5-(5-oxetan-3-yl-4,5,6,7-tetrahydro-pyrazolo[1,5-a]pyrazin-2-ylamino)-6-oxo-1,6-dihydro-pyridazin-3-yl]-pyridin-2-yl}-2H-isoquinolin-1-one]",6
3,"CCN1CCn2nc(Nc3cc(-c4ccnc(-n5ccc6cc(C(C)(C)C)cc(F)c6c5=O)c4CO)nn(C)c3=O)cc2C1 [Compound I-25, 6-tert-Butyl-2-{4-[5-(5-ethyl-4,5,6,7-tetrahydro-pyrazolo[1,5-a]pyrazin-2-ylamino)-1-methyl-6-oxo-1,6-dihydro-pyridazin-3-yl]-3-hydroxymethyl-pyridin-2-yl}-8-fluoro-2H-isoquinolin-1-one]",3
4,"Cn1cc(-c2nccc(-n3ncc4cc(C(C)(C)C)cc(F)c4c3=O)c2CO)cc(Nc2ccc(C(=O)N3CCOCC3)cn2)c1=O [Compound I-28, 4-(6-tert-Butyl-8-fluoro-1-oxo-1H-phthalazin-2-yl)-3-hydroxymethyl-1′-methyl-5′-[5-(morpholine-4-carbonyl)-pyridin-2-ylamino]-1′H-[2,3′]bipyridinyl-6′-one]",74
5,"Cn1cc(-c2nccc(-n3ncc4cc(C(C)(C)C)cc(F)c4c3=O)c2CO)cc(Nc2ccc(S(C)(=O)=O)cn2)c1=O [Compound I-29, 4-(6-tert-Butyl-8-fluoro-1-oxo-1H-phthalazin-2-yl)-3-hydroxymethyl-5′-(5-methanesulfonyl-pyridin-2-ylamino)-1′-methyl-1′H-[2,3′]bipyridinyl-6′-one]",162
6,"CN1CCn2nc(Nc3cc(-c4ccnc(-n5ccc6cc(C(C)(C)C#N)cc(F)c6c5=O)c4CO)nn(C)c3=O)cc2C1 [Compound I-31, 2-(8-Fluoro-2-{3-hydroxymethyl-4-[1-methyl-5-(5-methyl-4,5,6,7-tetrahydro-pyrazolo[1,5-a]pyrazin-2-ylamino)-6-oxo-1,6-dihydro-pyridazin-3-yl]-pyridin-2-yl}-1-oxo-1,2-dihydro-isoquinolin-6-yl)-2-methyl-propionitrile]",36

# More lines, now with the values ahead:
row,IC50 [nM],Compound
1,62,"Cn1nc(-c2ccnc(-n3ccc4cc(C(C)(C)C)cc(F)c4c3=O)c2CO)cc(Nc2ccc(OC(C)(C)CN3CC(F)(F)C3)cn2)c1=O [Compound I-27, 6-tert-Butyl-2-[4-(5-{5-[2-(3,3-difluoro-azetidin-1-yl)-1,1-dimethyl-ethoxy]-pyridin-2-ylamino}-1-methyl-6-oxo-1,6-dihydro-pyridazin-3-yl)-3-hydroxymethyl-pyridin-2-yl]-8-fluoro-2H-isoquinolin-1-one]"
2,55,"Cn1nc(-c2ccnc(-n3ncc4cc(C(C)(C)C)cc(F)c4c3=O)c2CO)cc(Nc2ccc(OC(C)(C)CN3CC(F)(F)C3)cn2)c1=O [Compound I-30, 6-tert-Butyl-2-[4-(5-{5-[2-(3,3-difluoro-azetidin-1-yl)-1,1-dimethyl-ethoxy]-pyridin-2-ylamino}-1-methyl-6-oxo-1,6-dihydro-pyridazin-3-yl)-3-hydroxymethyl-pyridin-2-yl]-8-fluoro-2H-phthalazin-1-one]"
3,106,"Cn1nc(-c2ccnc(-n3ccc4cc(C(C)(C)C#N)cc(F)c4c3=O)c2CO)cc(Nc2ccc(OC(C)(C)CN3CC(F)(F)C3)cn2)c1=O [Compound I-32, 2-{2-[4-(5-{5-[2-(3,3-Difluoro-azetidin-1-yl)-1,1-dimethyl-ethoxy]-pyridin-2-ylamino}-1-methyl-6-oxo-1,6-dihydro-pyridazin-3-yl)-3-hydroxymethyl-pyridin-2-yl]-8-fluoro-1-oxo-1,2-dihydro-isoquinolin-6-yl}-2-methyl-propionitrile]"
4,212,"Cn1nc(-c2ccnc(-n3ncc4cc(C(C)(C)C)ccc4c3=O)c2CO)cc(Nc2ccc(OC(C)(C)CN3CC(F)(F)C3)cn2)c1=O [Compound I-33, 6-tert-Butyl-2-[4-(5-{5-[2-(3,3-difluoro-azetidin-1-yl)-1,1-dimethyl-ethoxy]-pyridin-2-ylamino}-1-methyl-6-oxo-1,6-dihydro-pyridazin-3-yl)-3-hydroxymethyl-pyridin-2-yl]-2H-phthalazin-1-one]"
5,3500,"Cn1nc(-c2ccnc(-n3ncc4cc(C(C)(C)C)cc(F)c4c3=O)c2CO)cc(Nc2cc3n(n2)CC[N+](C)([O-])C3)c1=O (centres unmarked) [Compound I-34, 6-tert-Butyl-8-fluoro-2-{3-hydroxymethyl-4-[1-methyl-5-(5-methyl-5-oxy-4,5,6,7-tetrahydro-pyrazolo[1,5-a]pyrazin-2-ylamino)-6-oxo-1,6-dihydro-pyridazin-3-yl]-pyridin-2-yl}-2H-phthalazin-1-one]"
